Data published in patent publication US20200078379A1, “DEFEROXAMINE DERIVATIVES AS MEDICAMENTS” (BIOTECHNOLOGICKY USTAV AV CR, V.V.I., priority 2017, published 2020).
Like-named read-outs stand apart in the source and are kept apart here. Each block holds one molecule with its values, some of them ahead of it.

What was measured:
MCF7 cells = assay: crystal violet assay, cellular viability; type: cell-based, human; conditions: for IC50: MCF7, 48 h, read-out: IC50 cellular viability; for viability at 10 µM: MCF7, 10 μM
Protocol: (§1) Compound 1 and compound 2 were tested in their efficacy to kill malignant MCF7 cancer cells. Briefly, 10.000 cells per well were seeded in a 96-well plat on one day and the next day selected compounds were added and incubated with the cells for 48 hrs. The cells were then fixed with 4% paraformaldehyde, stained with 0.05% crystal violet, washed with PBS, and solubilized in 1% SDS. The absorbance of the plate at 595 nm was then measured, quantifying the number of viable cells.
(§2) A number of compounds of the present invention were tested for cytotoxicity towards at least some of human breast cancer cell lines (MCF7, MDA-MB-231), human fibroblast (BJ) and murine triple negative breast cancer cell line 4T1 (Table 2).

[1] = system: murine triple negative breast cancer cell line 4T1; assay: crystal violet assay, cellular viability; type: cell-based; conditions: Mus musculus, 4T1, 48 hours
Protocol: as §1, §2

[2] = system: pancreatic cell line BxPC3; assay: dose-effect relationship of drugs and mixtures, crystal violet assay, Median-Effect / Combination index; type: cell-based; conditions: for IC50: read-out: Median-Effect Plot parameter IC50
Protocol: (§3) The potentiation of cytotoxic effect of compound 2 in combination with several cytostatics was evaluated. The dose-effect relationship of individual drugs and mixtures of compound 2 with paclitaxel, cis Pt (cis-platin), doxorubicin and fluorouracil was determined on human mammary gland cancer cell line MDA-MB-231 and pancreatic cell line BxPC3 by means of crystal violet assay. The linearized Median-Effect Plot of dose response line provided both parameters (IC50; trend line m(slope) value) of Median-Effect Equation for individual and combination treatment [ref: Theoretical basis, experimental design, and computerized simulation of synergism and antagonism in drug combination studies; Ting-Chao Chou: Pharmacol Rev. 58(3), 2006, 621-81; Erratum in Pharmacol Rev. 2007; 59(1), 124]:
(§4) Potentiation of combination effect of compound 2 was expressed for concentrations IC50, IC75, IC90, IC95 by calculation of Combination index (CI) applying Combination Index Theorem for mutually exclusive drugs. Overall CI was expressed by means of weighted average of IC50, IC75, IC90, IC95 [ref: Quantitative analysis of dose-effect relationships: the combined effects of multiple drugs or enzyme inhibitors; Ting-Chao Chou, Paul Talalay: Advances in Enzyme Regulation, Volume 22, 1984, Pages 27-55]: […]

non malignant cells (BJ) = assay: AnnexinV/PI cell death assay; type: cell-based; conditions: ratio Ga:compound 2 1:0, 5 μM gallium salt alone
Protocol: To confirm such findings by an independent method, cell death-inducing potency (cytotoxic efficacy) of DFO and compound 2 have been tested via annexin V/PI staining commonly used as a measure of apoptotic/necrotic cell death. Briefly, cells were seeded in 12-well plate at 100,000 per well, incubated with the selected compounds for 48 hours, then floating cells were spun, adherent cells trypsinized and spun as well followed by the staining with AnnexinV-FITC and PI probes. Cells were then washed with PBS and measured via Fluorescence Activated Sorter.
We have then analyzed the percentage of death cells by the annexinV/PI staining as described in example 7. We have observed a significant potentiation in cell death induction when gallium was combined with compound 2 (Table 14)

[3] = system: human mammary gland cancer cell line MDA-MB-231; assay: dose-effect relationship of drugs and mixtures, crystal violet assay, Median-Effect / Combination index; type: cell-based; conditions: for concentration of the cytostatic at IC75, cytostatic alone: MDA-MB-231; for Median-Effect Plot parameter m (slope) / IC50: MDA-MB-231, crystal violet, 48 hours; for IC50: Chou-Talalay method, read-out: Median-Effect Plot parameter IC50
Protocol: as §3, §4

MDA-MB-231 cells = assay: crystal violet assay, cellular viability; type: cell-based, human; conditions: for mean percentage of surviving cells compared to non-treated controls: crystal violet
Protocol: as §1, §2

BT474 cells = assay: crystal violet assay, cellular viability; type: cell-based; conditions: crystal violet
[4] = Homo sapiens, 48 hrs, crystal violet, read-out: mean percentage of viable cells compared to non-treated controls

SMILES: CC(=O)N(O)CCCCCNC(=O)CCC(=O)N(O)CCCCCNC(=O)CCC(=O)N(O)CCCCCNCCCCCCCCCC[P+](c1ccccc1)(c1ccccc1)c1ccccc1 [Compound 1, Triphenyl(3,14,25-trihydroxy-2,10,13,21,24-pentaoxo-3,9,14,20,25,31-hexaazahentetracontan-41-yl) phosphonium chloride]
- IC50 (MCF7 cells; Homo sapiens, crystal violet): 2.2 µM
- viability at 1 µM (MCF7 cells; Homo sapiens, MCF7, 1 μM, 48 hrs, crystal violet, read-out: mean percentage of viable cells compared to non-treated controls): 83.3%
- viability at 2 µM (MCF7 cells; Homo sapiens, MCF7, 2 μM, 48 hrs, crystal violet, read-out: mean percentage of viable cells compared to non-treated controls): 48.2%
- viability at 5 µM (MCF7 cells; Homo sapiens, MCF7, 5 μM, 48 hrs, crystal violet, read-out: mean percentage of viable cells compared to non-treated controls): 15.2%
- viability at 10 µM (MCF7 cells; [4]): 11.9%

- IC50 (MCF7 cells; Homo sapiens, crystal violet): 4 µM
SMILES: CCCCCCCC[P+](CCCCCCCC)(CCCCCCCC)CCCCCCCCCCNCCCCCN(O)C(=O)CCC(=O)NCCCCCN(O)C(=O)CCC(=O)NCCCCCN(O)C(C)=O [Compound 11, 3,14,25-trihydroxy-42,42-dioctyl-2,10,13,21,24-pentaoxo-3,9,14,20,25,31-hexaaza-42-phosphapentacontane-31,42-diium dichloride]

SMILES: CC(=O)N(O)CCCCCNC(=O)CCC(=O)N(O)CCCCCNC(=O)CCC(=O)N(O)CCCCCN(CCCCOCCCCCCCCCC[P+](c1ccccc1)(c1ccccc1)c1ccccc1)CCCCOCCCCCCCCCC[P+](c1ccccc1)(c1ccccc1)c1ccccc1 [Compound 15, 3-(diphenyl(3,14,25-trihydroxy-2,10,13,21,24-pentaoxo-31-(4-((10-(triphenylphosphonio)decyl)oxy)butyl)-36-oxa-3,9,14,20,25,31-hexaazahexatetracontan-31-ium-46-yl)phosphonio)benzen-1-ide trichloride]
- IC50 (MCF7 cells; Homo sapiens, crystal violet): 0.5 µM

SMILES: CC(=O)ON(CCCCCNC(=O)CCC(=O)N(CCCCCNC(=O)CCC(=O)N(CCCCCN(CCCCCCCCCC[P+](c1ccccc1)(c1ccccc1)c1ccccc1)CCCCCCCCCC[P+](c1ccccc1)(c1ccccc1)c1ccccc1)OC(C)=O)OC(C)=O)C(C)=O [Compound 16, (15,26-diacetoxy-4-acetyl-2,11,14,22,25-pentaoxo-32-(10-(triphenylphosphonio)decyl)-3-oxa-4,10,15,21,26,32-hexaazadotetracontan-32-ium-42-yl)triphenylphosphonium trichloride]
- IC50 (MCF7 cells; Homo sapiens): 0.8 µM

- IC50 (MCF7 cells; Homo sapiens, crystal violet): 0.7 µM
SMILES: CCCCCCCCCCCCCCCC(=O)ON(CCCCCNC(=O)CCC(=O)N(CCCCCNC(=O)CCC(=O)N(CCCCCN(CCCCCCCCCC[P+](c1ccccc1)(c1ccccc1)c1ccccc1)CCCCCCCCCC[P+](c1ccccc1)(c1ccccc1)c1ccccc1)OC(=O)CCCCCCCCCCCCCCC)OC(=O)CCCCCCCCCCCCCCC)C(C)=O [Compound 17, (39-acetyl-18,21,29,32,41-pentaoxo-17,28-bis(palmitoyloxy)-11-(10-(triphenylphosphonio)decyl)-40-oxa-11,17,22,28,33,39-hexaazahexapentacontyl)triphenylphosphonium trichloride]

- IC50 [1]: 2.2 µM
SMILES: CC(=O)N(O)CCCCCNC(=O)CCC(=O)N(O)CCCCCNC(=O)CCC(=O)N(O)CCCCCN(Cc1cnnn1CCCCCCCCCC[P+](c1ccccc1)(c1ccccc1)c1ccccc1)Cc1cnnn1CCCCCCCCCC[P+](c1ccccc1)(c1ccccc1)c1ccccc1 [Compound 20, Triphenyl(10-(5-(8,19,30-trihydroxy-9,12,20,23,31-pentaoxo-2-((1-(10-(triphenylphosphonio)decyl)-1H-1,2,3-triazol-5-yl)methyl)-2,8,13,19,24,30-hexaazadotriacontyl)-1H-1,2,3-triazol-1-yl)decyl)phosphonium]

- IC50 ([2]; 48 hours): 48.3 µM
- IC50 ([2]; Homo sapiens, BXPC-3, 48 h): 48.3 µM
SMILES: O=c1[nH]cc(F)c(=O)[nH]1 [Fluorouracil, fluorouracil]
- Median-Effect Plot parameter m (slope) ([2]; 48 hours): 0.33

SMILES: O=[N+]([O-])[O-].O=[N+]([O-])[O-].O=[N+]([O-])[O-].[Ga+3] [Ga(NO3)2, gallium nitrate, reference compound]
- percentage of death cells by annexinV/PI staining (non malignant cells (BJ)): 14.45 (5.6)

SMILES: N.N.[Cl][Pt][Cl] [cis Pt, cis-platin]
- concentration of the cytostatic at IC75, cytostatic alone [3]: 42.2751 µM
- Median-Effect Plot parameter m (slope) [3]: 1.4574
- IC50 [3]: 21.8 µM
- Median-Effect Plot parameter m (slope) ([2]; 48 hours): 1.59
- IC50 ([2]; 48 hours): 4.18 µM

SMILES: CC(=O)N(O)CCCCCNC(=O)CCC(=O)N(O)CCCCCNC(=O)CCC(=O)N(O)CCCCCN(CCCCCC[P+](c1ccccc1)(c1ccccc1)c1ccccc1)CCCCCC[P+](c1ccccc1)(c1ccccc1)c1ccccc1.[Cl-].[Cl-] [compound 3, Triphenyl(3,14,25-trihydroxy-2,10,13,21,24-pentaoxo-31-(6-(triphenylphosphonio)hexyl)-3,9,14,20,25,31-hexaazaheptatriacontan-37-yl)phosphonium chloride]
- IC50 (MCF7 cells; Homo sapiens, crystal violet): 70.4 µM
- viability at 10 µM (MCF7 cells; [4]): 93.9%
- mean percentage of surviving cells compared to non-treated controls (MCF7 cells; MCF7, 4 μM, crystal violet): 100.4%
- mean percentage of surviving cells compared to non-treated controls (MCF7 cells; MCF7, 6 μM, crystal violet): 99.1%
- mean percentage of surviving cells compared to non-treated controls (MCF7 cells; MCF7, 8 μM, crystal violet): 98.2%
- mean percentage of surviving cells compared to non-treated controls (MCF7 cells; MCF7, 20 μM, crystal violet): 84.0%
- mean percentage of surviving cells compared to non-treated controls (MCF7 cells; MCF7, 40 μM, crystal violet): 74.6%
- mean percentage of surviving cells compared to non-treated controls (MCF7 cells; MCF7, 60 μM, crystal violet): 55.2%
- mean percentage of surviving cells compared to non-treated controls (MCF7 cells; MCF7, 80 μM, crystal violet): 43.2%
- mean percentage of surviving cells compared to non-treated controls (MCF7 cells; MCF7, 100 μM, crystal violet): 37.9%
- IC50 (MDA-MB-231 cells; Homo sapiens, MDA-MB-231, 48 h, read-out: IC50 cellular viability): 232 µM
- mean percentage of surviving cells compared to non-treated controls (MDA-MB-231 cells; MDA-MB-231, 4 μM): 97.7%
- mean percentage of surviving cells compared to non-treated controls (MDA-MB-231 cells; MDA-MB-231, 6 μM): 95.3%
- mean percentage of surviving cells compared to non-treated controls (MDA-MB-231 cells; MDA-MB-231, 8 μM): 103.1%
- mean percentage of surviving cells compared to non-treated controls (MDA-MB-231 cells; MDA-MB-231, 10 μM): 97.4%
- mean percentage of surviving cells compared to non-treated controls (MDA-MB-231 cells; MDA-MB-231, 20 μM): 98.9%
- mean percentage of surviving cells compared to non-treated controls (MDA-MB-231 cells; MDA-MB-231, 40 μM): 91.3%
- mean percentage of surviving cells compared to non-treated controls (MDA-MB-231 cells; MDA-MB-231, 60 μM): 86.5%
- mean percentage of surviving cells compared to non-treated controls (MDA-MB-231 cells; MDA-MB-231, 80 μM): 77.2%
- mean percentage of surviving cells compared to non-treated controls (MDA-MB-231 cells; MDA-MB-231, 100 μM): 76.0%
- mean percentage of surviving cells compared to non-treated controls (BT474 cells; BT474, 4 μM): 101.7%
- mean percentage of surviving cells compared to non-treated controls (BT474 cells; BT474, 6 μM): 109.1%
- mean percentage of surviving cells compared to non-treated controls (BT474 cells; BT474, 8 μM): 104.1%
- mean percentage of surviving cells compared to non-treated controls (BT474 cells; BT474, 10 μM): 99.2%
- mean percentage of surviving cells compared to non-treated controls (BT474 cells; BT474, 20 μM): 91.5%
- mean percentage of surviving cells compared to non-treated controls (BT474 cells; BT474, 40 μM): 74.2%
- mean percentage of surviving cells compared to non-treated controls (BT474 cells; BT474, 60 μM): 58.9%
- mean percentage of surviving cells compared to non-treated controls (BT474 cells; BT474, 80 μM): 49.6%
- mean percentage of surviving cells compared to non-treated controls (BT474 cells; BT474, 100 μM): 47.8%
- IC50 (BT474 cells; Homo sapiens, BT-474, BT474, 48 hours, read-out: IC50 cellular viability): 83.5 µM

- IC50 ([3]; Homo sapiens): 0.319 µM
SMILES: COc1cccc2c1C(=O)c1c(O)c3c(c(O)c1C2=O)C[C@@](O)(C(=O)CO)C[C@@H]3O[C@H]1C[C@H](N)[C@H](O)[C@H](C)O1 [doxorubicin]
- concentration of the cytostatic at IC75, cytostatic alone [3]: 3.5789 µM
- Median-Effect Plot parameter m (slope) [3]: 0.4543

- IC50 ([3]; Homo sapiens): 0.0189 µM
SMILES: CC(=O)O[C@H]1C(=O)[C@@]2(C)[C@H]([C@H](OC(=O)c3ccccc3)[C@]3(O)C[C@H](OC(=O)[C@H](O)[C@@H](NC(=O)c4ccccc4)c4ccccc4)C(C)=C1C3(C)C)[C@]1(OC(C)=O)CO[C@@H]1C[C@@H]2O [paclitaxel]
- concentration of the cytostatic at IC75, cytostatic alone [3]: 0.1420 µM
- Median-Effect Plot parameter m (slope) [3]: 0.5451
